According to patent US20240075046A1 (priority 2020, published 2024):
“Also recorded” adds a separate entry of the source.

What was measured:
[1] = system: AR, CDC25, GREB1, PGR and TFF1; assay: Expression of genes upregulated by estradiol binding to ERα, real-time PCR in MCF7 cells; type: cell-based; conditions: 18 hours, FIGS. 10D-10H
[2] = target: T1, ERα (Homo sapiens, UniProt P03372); assay: ERα protein level, western blot in MCF7 cells; type: cell-based; parameters: The intensity of ERα in the nucleus of MCF7 cells was reduced with time; endogenous in cells; host or cells: MCF7; conditions: 18 hours, single cannabinoids vs 1:25:1,000 combination, FIGS. 10A-10B
[3] = system: Immortalized Human Endometriotic Cell Line (12Z); assay: Endometriosis model, Annexin V assay, cell viability; type: cell-based; conditions: 12Z cells; 24 hours; CF2 concentration of 1 μg/mL
Description: To determine the therapeutic effects of CF2 on endometriosis, an Immortalized Human Endometriotic Cell Line (12Z) was used. Cells were incubated in a 12 well plate, each containing 1×10^6 cells. The cells were treated with either vehicle, or CF2 (0.125 to 1 μg/mL each) for 24 hours. Apoptosis was assessed using the Annexin V assay as detailed above. Data are presented as mean±S.E.M (n=3) and statistically analyzed by two-way ANOVA (*p<0.05, ****p<0.0001).

[4] = target: T1, ERα; assay: Endometriosis model, estrogen receptor western blot in 12Z cell line; type: cell-based; parameters: endogenous in cells; host or cells: 12Z; conditions: 5 h, CF2 0.125 to 0.75 μg/mL
[5] = system: ESR1; assay: ESR1 expression level, real-time PCR in MCF7 cells; type: cell-based; conditions: 18 hours, FIG. 10C
Description: The expression level of ESR1, the gene encoding for ERα, using real-time PCR following 18 hours of CANN14 treatment was examined. RNA was extracted from 5×10^5 cells and isolated using TRI reagents (Sigma, UK) according to the manufacturer's protocol. The RNA was reverse transcribed with Maxima First Strand cDNA synthesis kit (Life Technologies, Burlington, Canada) and RT-qPCR was preformed using Taq-Man (Life Technologies Ltd, UK). The fold change of calculated compared to the housekeeping gene 18S, using the formula 2^(−ΔΔCT). DMSO was used as a control. […] The activity of ERα as a transcriptional regulator by assessing its binding to Estrogen Response Elements (ERE) following CANN14 treatment was then examined. MCF7 cells were transfected with ERE-luciferase plasmid and luciferase activity was measured.
Next, the effect of the three identified cannabinoids on ERα expression and activity was examined. ERα protein level in MCF7, T47D, and ZR-75-1 cells was measured following 18 hours treatment with either THC, CBN or CF2, separately or in combinations (FIGS. 7A-7B, 8A-8B, and 9A-9B, respectively). […] ESR1 expression level was lowest following treatment with CF2 alone (FIG. 10C).

[6] = system: MCF7 cells; type: cell-based
[7] = system: MCF7 cells; assay: In-vivo mouse model, subcutaneous MCF7 ectopic tumor; conditions: nude mice, MCF7 tumors; IP three times weekly; CANN14 25 mg/kg, tamoxifen 2 mg/kg
[8] = system: T47D cells; assay: Apoptosis by Annexin V/PI staining, flow cytometry; type: cell-based; conditions: CANN14 4 μg/ml, tamoxifen 5 μM or combination
[9] = system: ZR-75-1 cells; assay: Apoptosis by Annexin V/PI staining, flow cytometry; type: cell-based; conditions: CANN14 4 μg/ml, tamoxifen 5 μM or combination
[10] = system: cleaved caspase-3 in T47D cells; assay: Cleaved caspase-3 western blot; type: cell-based; conditions: 8 hours, CANN14 4 μg/ml, tamoxifen 5 μM, relative to DMSO control
[11] = system: MCF7 cells; conditions: extracts 4 μg/ml, 24 hours, tamoxifen 5 μM, alone or combined
[12] = system: cleaved caspase-3 in MCF7 cells; assay: Cleaved caspase-3 western blot; type: cell-based; conditions: 8 hours, CANN14 4 μg/ml, tamoxifen 5 μM, relative to DMSO control
[13] = system: cleaved caspase-3 in ZR-75-1 cells; assay: Cleaved caspase-3 western blot; type: cell-based; conditions: 8 hours, CANN14 4 μg/ml, tamoxifen 5 μM, relative to DMSO control

T1 sequence (P03372 whole entry): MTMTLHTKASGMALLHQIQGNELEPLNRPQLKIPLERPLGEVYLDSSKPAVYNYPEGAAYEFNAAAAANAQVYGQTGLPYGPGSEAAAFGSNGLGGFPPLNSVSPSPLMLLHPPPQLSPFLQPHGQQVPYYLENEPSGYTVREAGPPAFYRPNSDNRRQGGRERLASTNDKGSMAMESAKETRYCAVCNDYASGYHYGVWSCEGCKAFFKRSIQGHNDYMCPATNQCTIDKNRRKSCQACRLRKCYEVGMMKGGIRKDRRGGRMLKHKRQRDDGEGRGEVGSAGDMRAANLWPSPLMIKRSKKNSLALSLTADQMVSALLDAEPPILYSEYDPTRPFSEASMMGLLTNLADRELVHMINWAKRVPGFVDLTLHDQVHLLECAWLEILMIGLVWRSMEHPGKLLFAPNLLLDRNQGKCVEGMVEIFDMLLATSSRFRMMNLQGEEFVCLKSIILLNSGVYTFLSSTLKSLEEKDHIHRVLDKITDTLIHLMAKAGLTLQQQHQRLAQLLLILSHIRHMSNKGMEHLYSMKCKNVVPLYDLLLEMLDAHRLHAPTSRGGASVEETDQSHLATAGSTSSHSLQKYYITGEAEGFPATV

Row | SMILES | expression levels of ERα target genes [1] | ERα protein level [2] | cell viability (% Live cells) [3] | ERα protein level [4] | ESR1 expression level [5] | apoptotic effect compared with the original 1:25:1,000 combination of CF2, CBN, and THC [6] | apoptotic effect compared with the CANN14 whole extract ([6]; MCF7 cells, higher concentrations of CF2, in combination with tamoxifen, FIG. 4G) | ectopic tumor volume / tumor size [7] | % Apoptosis [8] | % Apoptosis [9] | cleaved caspase-3, normalized intensity (treatment/control) [10] | % Cell death [11] | cleaved caspase-3, normalized intensity (treatment/control) [12] | cleaved caspase-3, normalized intensity (treatment/control) [13] | % Apoptosis ([6]; MCF7 cells, CANN14 4 μg/ml, tamoxifen 5 μM or combination)
1 | CCCCCc1cc(O)c2c(c1)OC(C)(C)c1ccc(C)cc1-2 [CBN, cannabinol, reference compound] | reduced to the lowest level compared to the control | – | – | – | – | – | – | – | – | – | – | – | – | – | –
2 | CCCCCc1cc(O)c(C/C=C(/C)CCC=C(C)C)c(O)c1OC(C)=O [CF2] | reduced to the lowest level compared to the control | significantly reduced the most; also recorded: reduces ERα protein level | statistically significant reduction in cell viability; also recorded: reduces cell viability | significantly reduced; also recorded: reduces | lowest | same apoptotic effect as the original combination of the three phytocannabinoids | significantly superior to the CANN14 whole extract | – | – | – | – | – | – | – | –
3 | CC/C(=C(\c1ccccc1)c1ccc(OCCN(C)C)cc1)c1ccccc1 [tamoxifen] | – | – | – | – | – | – | – | trend of smaller tumor sizes | not affected | not affected | increased induction of cleaved caspase-3 | did not affect the viability of the cells | increased induction of cleaved caspase-3 | increased induction of cleaved caspase-3 | not affected
